In US20240358693A1, “METHODS OF TREATING PAIN” (Aisa Pharma, Inc., priority 2023, published 2024):

System: participants with SSc-RP
Assay: Scleroderma Health Assessment Questionnaire (SHAQ): disability indices and visual analog scales
Type: in vivo, human
Conditions: PP Population, Part A, SSc patients, sensitivity analysis
Source text: The standard, validated, patient reported outcome measures tool for SSc patients, the Scleroderma Health Assessment Questionnaire (SHAQ), will be used to assess the participant qualify of life. Details are attached in the Appendix. The participant quality of life will be scored, and a disability index calculated for each questionnaire completed by the patient at Screening and each in-clinic visit. The absolute change in participant quality of life from baseline to the end of each dosing period will be calculated similar to frequency data as before.
The SHAQ includes a Raynaud's VAS, which will be reported at screening and each in-clinic visit. The absolute change in Raynaud-VAS, assessed by the participants response to the SHAQ question ‘In the past 7 days, how much have your Raynaud's interfered with your daily activities?’ at baseline and the end of each dosing period will be calculated similar to frequency data as before.
The SHAQ is used to calculate a Disability Index to assess the participant qualify of life. The eight categories assessed by the Disability Index are 1) dressing and grooming, 2) arising, 3) eating, 4) walking, 5) hygiene, 6) reach, 7) grip, and 8) common daily activities. For each of these categories, patients report the amount of difficulty they have in performing two or three specific activities.
There are four possible responses for the Disability Index questions: • Without any difficulty=0 • With some difficulty=1 • With much difficulty=2 • Unable to do=3. • The highest score reported by the patient for any component question of the eight categories determines the score for that category. • If a component question is left blank or the response is too ambiguous to assign a score, then the score for that category is determined by the remaining completed question(s). • If all component questions are blank or if more than one answer is given, then follow up with the respondent is required. • If the respondent's mark is between the response columns, then move it to the closest one. If it's directly between the two, move it to the higher one.
Each of the disability items on the SHAQ has a companion aids/devices variable that is used to record what type(s) of assistance, if any, the participant uses for his/her usual activities. These variables (see below) are coded as follows: • 0=No assistance is needed. • 1=A special device is used by the patient in his/her usual activities. • 2=The patient usually needs help from another person. • 3=The patient usually needs BOTH a special device AND help from another person.
The scoring variables and scoring rules permit the computation of two disability indices, the Standard Disability Index and the Alternative Disability Index.
This question results in a new set of category scores that are computed by adjusting the score for each category, if necessary, based on the patient's use of an aid or device or assistance for that category. If either devices and/or help from another person are checked for a category, the score is set to “2”, unless the score is already “3” (i.e., scores of “0” or “1” are increased to “2”). For example, if the highest score for the dressing category is “1”, and the patient says they use a device for dressing, the computed category score would be “2”. The sum of the computed categories scores is then calculated and divided by the number of categories answered. This gives a score in the 0 to 3 range.
The aid and device variables are not used to calculate the alternative disability index; it is calculated by adding the scores for each of the categories and dividing by the number of categories answered. This gives a score in the 0 to 3 range.
The standard, validated, patient reported outcome measures tool for SSc patients, the SHAQ, was collected at the time points specified in the study schedules (FIG. 2 and FIGS. 4A and 4B) to assess the participant's quality of life. The SHAQ included a Raynaud's VAS that will also be reported separately.

[1] = Day 12 vs baseline, Subject 01-110 Day 12 score excluded
[2] = In-Clinic Visit (Day 12), Subject 01-110 Day 12 score excluded

## COCCOC(=O)C1=C(C)NC(C)=C(C(=O)OC/C=C/c2ccccc2)C1c1cccc([N+](=O)[O-])c1 (stereo not drawn) [Pooled Cilnidipine]
Day 12 vs baseline
  SHAQ Alternative Disability Index, Change from Baseline, Max: 0.38
  SHAQ Alternative Disability Index, Change from Baseline, Mean: 0.031
  SHAQ Alternative Disability Index, Change from Baseline, Median: 0.000
  SHAQ Alternative Disability Index, Change from Baseline, Min: −0.13
  SHAQ Alternative Disability Index, Change from Baseline, Q1: −0.125
  SHAQ Alternative Disability Index, Change from Baseline, Q3: 0.125
  SHAQ Alternative Disability Index, Percent Change from Baseline, Max: 100.0%
  SHAQ Alternative Disability Index, Percent Change from Baseline, Mean: 9.68%
  SHAQ Alternative Disability Index, Percent Change from Baseline, Median: −11.11%
  SHAQ Alternative Disability Index, Percent Change from Baseline, Min: −50.0%
  SHAQ Alternative Disability Index, Percent Change from Baseline, Q1: −33.33%
  SHAQ Alternative Disability Index, Percent Change from Baseline, Q3: 42.86%
  SHAQ Visual Analogue Scale - Finger Ulcers, Change from Baseline, Max: 0.40
  SHAQ Visual Analogue Scale - Finger Ulcers, Change from Baseline, Mean: −0.643
  SHAQ Visual Analogue Scale - Finger Ulcers, Change from Baseline, Median: 0.000
  SHAQ Visual Analogue Scale - Finger Ulcers, Change from Baseline, Min: −3.20
  SHAQ Visual Analogue Scale - Finger Ulcers, Change from Baseline, Q1: −1.000
  SHAQ Visual Analogue Scale - Finger Ulcers, Change from Baseline, Q3: 0.000
  SHAQ Visual Analogue Scale - Finger Ulcers, Percent Change from Baseline, Max: 133.3%
  SHAQ Visual Analogue Scale - Finger Ulcers, Percent Change from Baseline, Mean: −17.08%
  SHAQ Visual Analogue Scale - Finger Ulcers, Percent Change from Baseline, Median: −50.82%
  SHAQ Visual Analogue Scale - Finger Ulcers, Percent Change from Baseline, Min: −100.0%
  SHAQ Visual Analogue Scale - Finger Ulcers, Percent Change from Baseline, Q1: −81.37%
  SHAQ Visual Analogue Scale - Finger Ulcers, Percent Change from Baseline, Q3: 47.22%
  SHAQ Visual Analogue Scale - Intestinal Problems, Change from Baseline, Max: 0.60
  SHAQ Visual Analogue Scale - Intestinal Problems, Change from Baseline, Mean: −0.863
  SHAQ Visual Analogue Scale - Intestinal Problems, Change from Baseline, Median: −0.050
  SHAQ Visual Analogue Scale - Intestinal Problems, Change from Baseline, Min: −4.40
  SHAQ Visual Analogue Scale - Intestinal Problems, Change from Baseline, Q1: −1.650
  SHAQ Visual Analogue Scale - Intestinal Problems, Change from Baseline, Q3: 0.150
  SHAQ Visual Analogue Scale - Intestinal Problems, Percent Change from Baseline, Max: 40.0%
  SHAQ Visual Analogue Scale - Intestinal Problems, Percent Change from Baseline, Mean: −43.69%
  SHAQ Visual Analogue Scale - Intestinal Problems, Percent Change from Baseline, Median: −66.06%
  SHAQ Visual Analogue Scale - Intestinal Problems, Percent Change from Baseline, Min: −100.0%
  SHAQ Visual Analogue Scale - Intestinal Problems, Percent Change from Baseline, Q1: −100.00%
  SHAQ Visual Analogue Scale - Intestinal Problems, Percent Change from Baseline, Q3: 30.00%
  SHAQ Visual Analogue Scale - Overall Disease Severity, Change from Baseline, Max: 0.20
  SHAQ Visual Analogue Scale - Overall Disease Severity, Change from Baseline, Mean: −1.450
  SHAQ Visual Analogue Scale - Overall Disease Severity, Change from Baseline, Median: −1.550
  SHAQ Visual Analogue Scale - Overall Disease Severity, Change from Baseline, Min: −3.10
  SHAQ Visual Analogue Scale - Overall Disease Severity, Change from Baseline, Q1: −1.850
  SHAQ Visual Analogue Scale - Overall Disease Severity, Change from Baseline, Q3: −0.950
  SHAQ Visual Analogue Scale - Overall Disease Severity, Percent Change from Baseline, Max: −26.8%
  SHAQ Visual Analogue Scale - Overall Disease Severity, Percent Change from Baseline, Mean: −61.10%
  SHAQ Visual Analogue Scale - Overall Disease Severity, Percent Change from Baseline, Median: −60.00%
  SHAQ Visual Analogue Scale - Overall Disease Severity, Percent Change from Baseline, Min: −100.0%
  SHAQ Visual Analogue Scale - Overall Disease Severity, Percent Change from Baseline, Q1: −76.19%
  SHAQ Visual Analogue Scale - Overall Disease Severity, Percent Change from Baseline, Q3: −44.12%
  SHAQ Visual Analogue Scale - Pain, Change from Baseline, Max: 0.70
  SHAQ Visual Analogue Scale - Pain, Change from Baseline, Mean: −0.375
  SHAQ Visual Analogue Scale - Pain, Change from Baseline, Median: −0.250
  SHAQ Visual Analogue Scale - Pain, Change from Baseline, Min: −2.00
  SHAQ Visual Analogue Scale - Pain, Change from Baseline, Q1: −0.750
  SHAQ Visual Analogue Scale - Pain, Change from Baseline, Q3: 0.150
  SHAQ Visual Analogue Scale - Pain, Percent Change from Baseline, Max: 19.4%
  SHAQ Visual Analogue Scale - Pain, Percent Change from Baseline, Mean: −23.98%
  SHAQ Visual Analogue Scale - Pain, Percent Change from Baseline, Median: −41.18%
  SHAQ Visual Analogue Scale - Pain, Percent Change from Baseline, Min: −55.6%
  SHAQ Visual Analogue Scale - Pain, Percent Change from Baseline, Q1: −53.33%
  SHAQ Visual Analogue Scale - Pain, Percent Change from Baseline, Q3: 11.54%
  SHAQ Visual Analogue Scale - Raynaud’s, Change from Baseline, Max: 1.50
  SHAQ Visual Analogue Scale - Raynaud’s, Change from Baseline, Mean: −0.438
  SHAQ Visual Analogue Scale - Raynaud’s, Change from Baseline, Median: −0.600
  SHAQ Visual Analogue Scale - Raynaud’s, Change from Baseline, Min: −2.40
  SHAQ Visual Analogue Scale - Raynaud’s, Change from Baseline, Q1: −1.050
  SHAQ Visual Analogue Scale - Raynaud’s, Change from Baseline, Q3: 0.350
  SHAQ Visual Analogue Scale - Raynaud’s, Percent Change from Baseline, Max: 136.4%
  SHAQ Visual Analogue Scale - Raynaud’s, Percent Change from Baseline, Mean: −18.62%
  SHAQ Visual Analogue Scale - Raynaud’s, Percent Change from Baseline, Median: −33.33%
  SHAQ Visual Analogue Scale - Raynaud’s, Percent Change from Baseline, Min: −100.0%
  SHAQ Visual Analogue Scale - Raynaud’s, Percent Change from Baseline, Q1: −68.57%
  SHAQ Visual Analogue Scale - Raynaud’s, Percent Change from Baseline, Q3: −2.27%
[1]
  SHAQ Visual Analogue Scale - Breathing Problems, Change from Baseline, Max: 0.60
  SHAQ Visual Analogue Scale - Breathing Problems, Change from Baseline, Mean: −0.388
  SHAQ Visual Analogue Scale - Breathing Problems, Change from Baseline, Median: 0.000
  SHAQ Visual Analogue Scale - Breathing Problems, Change from Baseline, Min: −2.00
  SHAQ Visual Analogue Scale - Breathing Problems, Change from Baseline, Q1: −1.000
  SHAQ Visual Analogue Scale - Breathing Problems, Change from Baseline, Q3: 0.150
  SHAQ Visual Analogue Scale - Breathing Problems, Percent Change from Baseline, Max: 150.0%
  SHAQ Visual Analogue Scale - Breathing Problems, Percent Change from Baseline, Mean: −0.22%
  SHAQ Visual Analogue Scale - Breathing Problems, Percent Change from Baseline, Median: −16.00%
  SHAQ Visual Analogue Scale - Breathing Problems, Percent Change from Baseline, Min: −100.0%
  SHAQ Visual Analogue Scale - Breathing Problems, Percent Change from Baseline, Q1: −66.67%
  SHAQ Visual Analogue Scale - Breathing Problems, Percent Change from Baseline, Q3: 31.58%
In-Clinic Visit (Day 12)
  SHAQ Alternative Disability Index, Max: 1.25
  SHAQ Alternative Disability Index, Mean: 0.391
  SHAQ Alternative Disability Index, Median: 0.188
  SHAQ Alternative Disability Index, Min: 0.00
  SHAQ Alternative Disability Index, Q1: 0.000
  SHAQ Alternative Disability Index, Q3: 0.750
  SHAQ Visual Analogue Scale - Finger Ulcers, Max: 1.90
  SHAQ Visual Analogue Scale - Finger Ulcers, Mean: 0.463
  SHAQ Visual Analogue Scale - Finger Ulcers, Median: 0.000
  SHAQ Visual Analogue Scale - Finger Ulcers, Min: 0.00
  SHAQ Visual Analogue Scale - Finger Ulcers, Q1: 0.000
  SHAQ Visual Analogue Scale - Finger Ulcers, Q3: 0.900
  SHAQ Visual Analogue Scale - Intestinal Problems, Max: 3.80
  SHAQ Visual Analogue Scale - Intestinal Problems, Mean: 0.975
  SHAQ Visual Analogue Scale - Intestinal Problems, Median: 0.300
  SHAQ Visual Analogue Scale - Intestinal Problems, Min: 0.00
  SHAQ Visual Analogue Scale - Intestinal Problems, Q1: 0.000
  SHAQ Visual Analogue Scale - Intestinal Problems, Q3: 1.700
  SHAQ Visual Analogue Scale - Overall Disease Severity, Max: 5.20
  SHAQ Visual Analogue Scale - Overall Disease Severity, Mean: 1.475
  SHAQ Visual Analogue Scale - Overall Disease Severity, Median: 1.300
  SHAQ Visual Analogue Scale - Overall Disease Severity, Min: 0.00
  SHAQ Visual Analogue Scale - Overall Disease Severity, Q1: 0.350
  SHAQ Visual Analogue Scale - Overall Disease Severity, Q3: 1.650
  SHAQ Visual Analogue Scale - Pain, Max: 4.30
  SHAQ Visual Analogue Scale - Pain, Mean: 1.875
  SHAQ Visual Analogue Scale - Pain, Median: 1.550
  SHAQ Visual Analogue Scale - Pain, Min: 0.00
  SHAQ Visual Analogue Scale - Pain, Q1: 0.550
  SHAQ Visual Analogue Scale - Pain, Q3: 3.250
  SHAQ Visual Analogue Scale - Raynaud’s, Max: 4.40
  SHAQ Visual Analogue Scale - Raynaud’s, Mean: 1.900
  SHAQ Visual Analogue Scale - Raynaud’s, Median: 1.250
  SHAQ Visual Analogue Scale - Raynaud’s, Min: 0.00
  SHAQ Visual Analogue Scale - Raynaud’s, Q1: 0.700
  SHAQ Visual Analogue Scale - Raynaud’s, Q3: 3.450
[2]
  SHAQ Visual Analogue Scale - Breathing Problems, Max: 6.30
  SHAQ Visual Analogue Scale - Breathing Problems, Mean: 1.213
  SHAQ Visual Analogue Scale - Breathing Problems, Median: 0.200
  SHAQ Visual Analogue Scale - Breathing Problems, Min: 0.00
  SHAQ Visual Analogue Scale - Breathing Problems, Q1: 0.000
  SHAQ Visual Analogue Scale - Breathing Problems, Q3: 1.500
